Broadly, the IC50 is the point on the concentration scale where inhibition reaches its midpoint. Read a high IC50 as lower potency.

Drawing on patent publication US20070275960A1, “Phenyl and pyridyl compounds for inflammation and immune-related uses” (Synta Pharmaceuticals Corp., priority 2006, published 2007), this text covers IC50 for 9 compounds.

The subject of the experiment is IL-2 production. Nature of the experiment: Inhibition of IL-2 production in PHA-activated Jurkat cells (ELISA). It counts as cell-based. The following applies: Homo sapiens, Jurkat, 20 h, PHA 2.5 μg/mL, 20 hours at 37° C., IL-2 by ELISA. As for the experimental part:
Jurkat cells were placed in a 96 well plate (0.5 million cells per well in 1% FBS medium) then a test compound of this invention was added at different concentrations. After 10 minutes, the cells were activated with PHA (final concentration 2.5 μg/mL) and incubated for 20 hours at 37° C. under CO2. The final volume was 200 μL. Following incubation, the cells were centrifuged and the supernatants collected and stored at −70° C. prior to assaying for IL-2 production. A commercial ELISA kit (IL-2 Eli-pair, Diaclone Research, Besancon, France) was used to detect production of IL-2, from which dose response curves were obtained. The IC50 value was calculated as the concentration at which 50% of maximum IL-2 production after stimulation was inhibited versus a non-stimulation control.
A general note: An ELISA detects its analyte on a solid surface through an enzyme-linked reagent.

Compound `COC(=O)c1nc(C)c(-c2ccc(NC(=O)c3c(F)cccc3F)cc2)s1` [Compound 121, 2,6-Difluoro-N-[4-(4-methyl-2-methoxycarbonyl-thiazol-5-yl)-phenyl]-benzamide] registered a 50% inhibitory concentration (IC50) of 133 nM.
In turn, `Cc1sc(-c2ncco2)cc1-c1ccc(NC(=O)c2c(F)cccc2F)cc1` [Compound 122, 2,6-Difluoro-N-[4-(2-methyl-5-oxazol-2yl-thiophen-3-yl)-phenyl]-benzamide] gave a half-inhibitory concentration (IC50) of 1.9 nM.
`CCOC(=O)c1nc(-c2ccc(NC(=O)c3c(F)cccc3F)cc2)c(C)s1` [Compound 123, 2,6-Difluoro-N-[4-(5-methyl-2-ethoxycarbonyl-thiazol-4-yl)-phenyl]-benzamide]: it took 123 nM to reach half-maximal inhibition (IC50).
`Cc1cnccc1C(=O)Nc1ccc(-c2cc(-c3ncco3)sc2C)cc1` [Compound 124, 3-Methyl-N-[4-(2-methyl-5-oxazol-2-yl-thiophen-3-yl)-phenyl]-isonicotinamide] gave an IC50 of 8.6 nM.
Next, `Cc1cc(-c2ccno2)sc1-c1ccc(NC(=O)Nc2c(F)cccc2F)cc1` [Compound 125, 1-(2,6-difluoro-phenyl)-3-[4-(5-isoxazol-5-yl-3-methyl-thiophen-2-yl)-phenyl]-urea]: 2.5 nM.
Regarding `Cc1cc(-c2cnco2)sc1-c1ccc(NC(=O)Nc2c(F)cccc2F)cc1` [Compound 126, 1-(2,6-difluoro-phenyl)-3-[4-(5-oxazol-5-yl-3-methyl-thiophen-2-yl)-phenyl]-urea], half-maximal inhibition (IC50) required 2.4 nM.
Take `Cc1cc(-c2cnco2)sc1-c1ccc(NC(=O)Nc2ccncc2F)cc1` [Compound 127, 1-(3-fluoro-pyridin-4-yl)-3-[4-(5-oxazol-5-yl-3-methyl-thiophen-2-yl)-phenyl]-urea]: the IC50 was 41 nM.
For `Cc1cc(-c2ccno2)sc1-c1ccc(NCc2ccncc2F)cc1` [Compound 128, (3-Fluoro-pyridin-4-ylmethyl)-[4-(5-isoxazol-5-yl-3-methyl-thiophen-2-yl)-phenyl]-amine], the IC50 worked out at 19 nM.
Under `Cc1cc(-c2cnco2)sc1-c1ccc(NCc2ccncc2F)cc1` [Compound 129, (3-Fluoro-pyridin-4-ylmethyl)-[4-(5-oxazol-5-yl-3-methyl-thiophen-2-yl)-phenyl]-amine] stands 74.4 nM.
